Laboratory results taken from patent US10851102B2, “Imidazole and triazole containing bicyclic compounds as JAK inhibitors” (THERAVANCE BIOPHARMA R&D IP, LLC, priority 2019, dated 2020).

How the values were obtained:
Tyk2 = Tyk2 (Homo sapiens (Human), UniProt P29597); test: Biochemical JAK and Tyk2 kinase assays (LanthaScreen): Tyk2; conditions: 1 h pre-incubation, ATP at Km; pIC50 converted to pKi by Cheng-Prusoff
Method in brief: (§1)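 GST-tagged recombinant JAK enzymes with GFP-STAT1 peptide substrate in HEPES pH 7.5, MgCl2, EGTA buffer; compound pre-incubated 1 h, ATP-initiated reaction 1 h at ambient temperature. Tb-anti-pSTAT1 (pTyr701) TR-FRET readout (520/495 nm); IC50 from 4-parameter fit, converted to pKi via Cheng-Prusoff.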

[1] = tested on: IL-2 stimulated pSTAT5 in Tall-1 T cells (JAK3); test: Cellular JAK3 potency assay: inhibition of IL-2 stimulated pSTAT5 in Tall-1 T cells; assay type: cell-based; conditions: IL-2 300 ng/ml, pSTAT5 AlphaLisa, Tall-1 human T cell line; read-out: Tall-1 (pIC50) (converted)
Method in brief: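 Human Tall-1 T cells (45,000/well) preincubated with compound 1 h at 37 °C, then stimulated with IL-2 (final 300 ng/ml) for 30 min. Lysates read for pSTAT5 (Tyr694/699) by AlphaLISA luminescence. IC50 from signal-versus-concentration curves, reported as pIC50 (mean±SD).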

JAK3 = JAK3 (Homo sapiens (Human), UniProt P52333); test: Biochemical JAK and Tyk2 kinase assays (LanthaScreen): JAK3; conditions: for Ki: 1 h pre-incubation, ATP at Km, pIC50 converted to pKi by Cheng-Prusoff, read-out: JAK 3 (pKi) (converted); for JAK3 (pKi)-JAK1 (pKi): difference of pKi values, selectivity JAK3 over JAK1
JAK3, sequence (P52333 whole entry): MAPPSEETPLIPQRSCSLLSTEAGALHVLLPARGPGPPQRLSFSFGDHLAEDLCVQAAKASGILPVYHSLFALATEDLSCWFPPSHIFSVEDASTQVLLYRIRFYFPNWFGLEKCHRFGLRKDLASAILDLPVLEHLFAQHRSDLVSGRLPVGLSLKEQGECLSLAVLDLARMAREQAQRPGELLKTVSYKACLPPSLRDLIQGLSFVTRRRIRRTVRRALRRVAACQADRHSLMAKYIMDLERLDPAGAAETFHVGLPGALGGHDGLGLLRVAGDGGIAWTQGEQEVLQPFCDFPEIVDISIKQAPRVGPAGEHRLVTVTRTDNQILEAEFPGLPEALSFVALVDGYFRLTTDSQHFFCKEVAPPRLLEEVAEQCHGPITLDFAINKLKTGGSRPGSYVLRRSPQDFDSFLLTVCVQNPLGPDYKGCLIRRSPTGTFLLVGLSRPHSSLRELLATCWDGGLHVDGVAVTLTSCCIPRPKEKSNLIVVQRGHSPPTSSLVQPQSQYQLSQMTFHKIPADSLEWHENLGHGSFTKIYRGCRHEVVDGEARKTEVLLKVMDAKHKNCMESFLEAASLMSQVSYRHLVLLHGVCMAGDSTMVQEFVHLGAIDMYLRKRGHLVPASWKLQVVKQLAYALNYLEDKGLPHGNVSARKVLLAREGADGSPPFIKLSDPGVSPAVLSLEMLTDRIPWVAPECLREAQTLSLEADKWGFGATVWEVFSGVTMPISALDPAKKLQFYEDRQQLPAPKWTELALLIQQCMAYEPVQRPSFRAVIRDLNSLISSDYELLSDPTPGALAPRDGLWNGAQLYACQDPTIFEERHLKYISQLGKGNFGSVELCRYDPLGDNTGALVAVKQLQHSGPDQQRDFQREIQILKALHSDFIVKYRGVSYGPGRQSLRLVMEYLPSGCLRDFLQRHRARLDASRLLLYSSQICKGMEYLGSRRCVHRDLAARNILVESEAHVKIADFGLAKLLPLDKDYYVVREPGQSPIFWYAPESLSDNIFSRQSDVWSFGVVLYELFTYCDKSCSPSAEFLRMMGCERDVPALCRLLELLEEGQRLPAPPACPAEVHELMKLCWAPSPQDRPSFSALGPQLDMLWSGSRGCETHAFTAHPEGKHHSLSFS
Method in brief: as §1

JAK2 = JAK2 (Homo sapiens (Human), UniProt O60674); test: Biochemical JAK and Tyk2 kinase assays (LanthaScreen): JAK2; conditions: 1 h pre-incubation, ATP at Km; pIC50 converted to pKi by Cheng-Prusoff
JAK2, sequence (O60674 whole entry): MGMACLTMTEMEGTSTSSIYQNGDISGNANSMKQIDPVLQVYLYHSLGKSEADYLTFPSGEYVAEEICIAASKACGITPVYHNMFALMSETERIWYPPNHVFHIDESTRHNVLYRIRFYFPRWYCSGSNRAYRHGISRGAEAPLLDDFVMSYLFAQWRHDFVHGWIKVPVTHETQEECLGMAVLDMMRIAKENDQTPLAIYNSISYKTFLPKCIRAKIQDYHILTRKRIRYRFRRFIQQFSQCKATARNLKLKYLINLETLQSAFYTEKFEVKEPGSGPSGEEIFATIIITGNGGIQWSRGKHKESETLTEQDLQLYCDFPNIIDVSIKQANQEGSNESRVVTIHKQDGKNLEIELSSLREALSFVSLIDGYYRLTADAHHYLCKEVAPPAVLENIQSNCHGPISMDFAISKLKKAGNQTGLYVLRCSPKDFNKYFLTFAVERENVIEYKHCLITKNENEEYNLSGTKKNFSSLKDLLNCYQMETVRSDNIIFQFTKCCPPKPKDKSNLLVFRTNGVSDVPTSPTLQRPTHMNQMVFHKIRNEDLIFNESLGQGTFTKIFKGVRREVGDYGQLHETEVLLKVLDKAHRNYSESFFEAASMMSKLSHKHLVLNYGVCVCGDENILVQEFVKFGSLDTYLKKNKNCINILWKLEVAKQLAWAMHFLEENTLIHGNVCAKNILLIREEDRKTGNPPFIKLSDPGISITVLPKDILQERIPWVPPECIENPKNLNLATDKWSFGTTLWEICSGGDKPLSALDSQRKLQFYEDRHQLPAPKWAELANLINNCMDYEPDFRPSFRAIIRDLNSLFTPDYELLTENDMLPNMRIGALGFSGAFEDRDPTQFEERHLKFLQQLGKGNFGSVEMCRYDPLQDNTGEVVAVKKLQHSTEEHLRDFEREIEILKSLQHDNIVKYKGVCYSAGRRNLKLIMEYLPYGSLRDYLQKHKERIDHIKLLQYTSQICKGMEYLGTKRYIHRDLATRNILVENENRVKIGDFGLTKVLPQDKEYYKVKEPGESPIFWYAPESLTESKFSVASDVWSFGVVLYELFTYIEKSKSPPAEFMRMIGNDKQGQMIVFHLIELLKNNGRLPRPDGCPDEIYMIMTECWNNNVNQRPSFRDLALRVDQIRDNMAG
Method in brief: as §1

Tyk2, sequence (P29597 whole entry): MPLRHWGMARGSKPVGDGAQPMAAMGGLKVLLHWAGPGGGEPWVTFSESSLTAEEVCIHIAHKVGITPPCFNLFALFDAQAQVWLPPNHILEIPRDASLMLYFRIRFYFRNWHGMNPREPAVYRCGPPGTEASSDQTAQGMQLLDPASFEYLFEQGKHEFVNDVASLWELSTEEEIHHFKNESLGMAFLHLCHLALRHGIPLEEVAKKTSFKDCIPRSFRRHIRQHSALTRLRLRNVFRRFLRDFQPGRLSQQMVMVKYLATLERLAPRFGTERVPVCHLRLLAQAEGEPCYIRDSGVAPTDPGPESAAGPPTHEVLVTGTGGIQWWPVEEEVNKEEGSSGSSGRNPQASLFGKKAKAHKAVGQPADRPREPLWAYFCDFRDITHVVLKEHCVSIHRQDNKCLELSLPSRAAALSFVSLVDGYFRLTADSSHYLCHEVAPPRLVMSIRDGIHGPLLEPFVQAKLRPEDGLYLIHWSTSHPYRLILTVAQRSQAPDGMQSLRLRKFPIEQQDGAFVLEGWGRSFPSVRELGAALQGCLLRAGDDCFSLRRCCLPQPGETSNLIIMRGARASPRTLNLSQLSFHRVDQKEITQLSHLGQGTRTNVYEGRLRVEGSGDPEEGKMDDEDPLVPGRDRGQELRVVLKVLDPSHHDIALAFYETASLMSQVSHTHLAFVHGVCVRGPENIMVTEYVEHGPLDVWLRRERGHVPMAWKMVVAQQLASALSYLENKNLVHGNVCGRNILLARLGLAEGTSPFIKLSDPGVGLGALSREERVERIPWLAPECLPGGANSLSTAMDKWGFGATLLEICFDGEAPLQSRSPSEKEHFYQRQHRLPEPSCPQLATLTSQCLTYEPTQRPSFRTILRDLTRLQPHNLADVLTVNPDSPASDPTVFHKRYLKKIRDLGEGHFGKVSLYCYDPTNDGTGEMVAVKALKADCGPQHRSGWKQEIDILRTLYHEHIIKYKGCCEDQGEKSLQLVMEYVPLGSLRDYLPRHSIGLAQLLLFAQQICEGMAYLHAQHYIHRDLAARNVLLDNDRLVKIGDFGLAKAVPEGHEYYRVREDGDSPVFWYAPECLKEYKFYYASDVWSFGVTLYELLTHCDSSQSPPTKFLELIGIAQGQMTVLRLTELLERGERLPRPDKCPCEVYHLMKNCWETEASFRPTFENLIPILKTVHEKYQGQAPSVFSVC

| SMILES | Tyk 2 (pKi) (Tyk2) | IC50 [1] | Ki (JAK3) | JAK3 (pKi)-JAK1 (pKi) (JAK3) | JAK 2 (pKi) (JAK2) |
| --- | --- | --- | --- | --- | --- |
| C=CC(=O)N1CC(COc2cc(-c3ccc(O)c(Cl)c3)cn3cncc23)C1 [Example 12, 1-(3-(((6-(3-chloro-4-hydroxyphenyl)imidazo[1,5-a]pyridin-8-yl)oxy)methyl)azetidin-1-yl)prop-2-en-1-one] | E (E represents a pKi value of 7 or below (Ki of 100 nM or above)) | 31.6 to 200 nM | 0.1 to 1 nM | A (A represents a value of 3 or above) | E (E represents a pKi value of 7 or below (Ki of 100 nM or above)) |
| C=CC(=O)N1CC(COc2cc(-c3cc(F)c(O)cc3CC)cn3cncc23)C1 [Example 13, 1-(3-(((6-(2-ethyl-5-fluoro-4-hydroxyphenyl)imidazo[1,5-a]pyridin-8-yl)oxy)methyl)azetidin-1-yl)prop-2-en-1-one] | E (E represents a pKi value of 7 or below (Ki of 100 nM or above)) | ≤ 31.6 nM | 0.1 to 1 nM | A (A represents a value of 3 or above) | E (E represents a pKi value of 7 or below (Ki of 100 nM or above)) |
